Experimental data as given in PubChem BioAssay AID248 (DTP/NCI, 2004).
Inconclusive results and toxic doses are left out. Cut-off read from the data, not from the text of the source: active = T/C of 150% or more; inactive = T/C below 125%.

Test system: L1210 leukemia ip in BDF1 mice, survival T/C
Assay: NCI In Vivo Anticancer Drug Screen. Data for tumor model L1210 Leukemia (intraperitoneal) in B6D2F1 (BDF1) mice
Conditions: endpoint: mean survival time, higher = longer survival
Procedure, shortened: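 Antitumor effect is assessed in tumor-bearing animals. Survival in the compound arm is compared with a vehicle-dosed control arm and expressed as their quotient.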

[1] = dose: 75.0 mg/kg/injection, schedule: Q01DX001 (ip), vehicle: saline
[2] = dose: 150.0 mg/kg/injection, schedule: Q01DX001 (ip), vehicle: saline
[3] = dose: 100.0 mg/kg/injection, schedule: Q01DX001 (ip), vehicle: carboxymethylcellulose (CMC)
[4] = dose: 100.0 mg/kg/injection, schedule: Q04DX003 (ip), vehicle: saline with Tween-80
[5] = dose: 200.0 mg/kg/injection, schedule: Q04DX003 (ip), vehicle: saline with Tween-80
[6] = dose: 100.0 mg/kg/injection, schedule: Q04DX003 (ip), vehicle: Klucel (hydroxypropylcellulose) (HPC)
[7] = dose: 200.0 mg/kg/injection, schedule: Q04DX003 (ip), vehicle: Klucel (hydroxypropylcellulose) (HPC)
[8] = dose: 400.0 mg/kg/injection, schedule: Q04DX003 (ip), vehicle: Klucel (hydroxypropylcellulose) (HPC)
[9] = dose: 300.0 mg/kg/injection, schedule: Q04DX003 (ip), vehicle: Klucel (hydroxypropylcellulose) (HPC)
[10] = dose: 100.0 mg/kg/injection, schedule: Q01DX001 (ip), vehicle: saline
[11] = dose: 200.0 mg/kg/injection, schedule: Q01DX001 (ip), vehicle: saline
[12] = dose: 100.0 mg/kg/injection, schedule: Q01DX009 (ip), vehicle: Klucel (hydroxypropylcellulose) (HPC)
[13] = dose: 200.0 mg/kg/injection, schedule: Q01DX009 (ip), vehicle: Klucel (hydroxypropylcellulose) (HPC)
[14] = dose: 400.0 mg/kg/injection, schedule: Q01DX009 (ip), vehicle: Klucel (hydroxypropylcellulose) (HPC)
[15] = dose: 100.0 mg/kg/injection, schedule: Q04DX002 (ip), vehicle: Klucel (hydroxypropylcellulose) (HPC)
[16] = dose: 200.0 mg/kg/injection, schedule: Q04DX002 (ip), vehicle: Klucel (hydroxypropylcellulose) (HPC)
[17] = dose: 400.0 mg/kg/injection, schedule: Q04DX002 (ip), vehicle: Klucel (hydroxypropylcellulose) (HPC)

Measured: T/C

CCC/C=N/Nc1ccnc(SC)n1
inactive: dose: 100.0 mg/kg/injection, schedule: Q01DX009 (ip), vehicle: gum acacia 97 % of control

CC[N+]1(CN2CCCCC2)CCCCC1
inactive: dose: 12.5 mg/kg/injection, schedule: Q04DX003 (ip), vehicle: Klucel (hydroxypropylcellulose) (HPC) 102 % of control | dose: 25.0 mg/kg/injection, schedule: Q04DX003 (ip), vehicle: Klucel (hydroxypropylcellulose) (HPC) 96 % of control | dose: 50.0 mg/kg/injection, schedule: Q04DX003 (ip), vehicle: Klucel (hydroxypropylcellulose) (HPC) 90 % of control

NNC(=O)CO
inactive: dose: 100.0 mg/kg/injection, schedule: Q01DX009 (ip), vehicle: saline 108 % of control | dose: 100.0 mg/kg/injection, schedule: Q04DX003 (ip), vehicle: saline 101 % of control | dose: 200.0 mg/kg/injection, schedule: Q01DX009 (ip), vehicle: saline 106 % of control | dose: 200.0 mg/kg/injection, schedule: Q04DX003 (ip), vehicle: saline 97 % of control | dose: 400.0 mg/kg/injection, schedule: Q01DX009 (ip), vehicle: saline 114 % of control | dose: 400.0 mg/kg/injection, schedule: Q04DX003 (ip), vehicle: saline 98 % of control

Nc1ccc(CCCCc2ccccc2)c(Cl)c1
inactive: [1] 90 % of control | [2] 96 % of control

Nc1ncnc2c1cnn2C1OC(CO)C(O)C1O (stereo not given)
inactive: dose: 4.1 mg/kg/injection, schedule: Q01DX009 (ip), vehicle: carboxymethylcellulose (CMC) 97 % of control | dose: 6.2 mg/kg/injection, schedule: Q01DX009 (ip), vehicle: carboxymethylcellulose (CMC) 111 % of control | dose: 9.3 mg/kg/injection, schedule: Q01DX009 (ip), vehicle: carboxymethylcellulose (CMC) 124 % of control | dose: 67.5 mg/kg/injection, schedule: Q01DX015 (ip), vehicle: carboxymethylcellulose (CMC) 122 % of control | [3] 111 % of control

CCC(O)C1CCCCN1 (stereo not given)
inactive: [4] 91 % of control | [5] 104 % of control

CC(O)CNC(=S)c1ccccc1 (stereo not given)
inactive: dose: 100.0 mg/kg/injection, schedule: Q04DX002 (ip), vehicle: saline with Tween-80 101 % of control | dose: 200.0 mg/kg/injection, schedule: Q04DX002 (ip), vehicle: saline with Tween-80 101 % of control

COC(=O)CN(C(=O)c1ccc(OC(C)=O)cc1)c1ccccc1
inactive: [6] 100 % of control | [7] 94 % of control | [8] 96 % of control

Cc1c2ccccc2nc(CNC2CCCCC2)[n+]1[O-]
inactive: dose: 12.5 mg/kg/injection, schedule: Q01DX001 (ip), vehicle: saline 98 % of control | dose: 25.0 mg/kg/injection, schedule: Q01DX001 (ip), vehicle: saline 97 % of control | dose: 50.0 mg/kg/injection, schedule: Q01DX001 (ip), vehicle: saline 90 % of control

O=C(Cc1ccccc1)Nc1cccnc1
inactive: dose: 75.0 mg/kg/injection, schedule: Q04DX003 (ip), vehicle: Klucel (hydroxypropylcellulose) (HPC) 102 % of control | dose: 100.0 mg/kg/injection, schedule: Q01DX001 (ip), vehicle: Klucel (hydroxypropylcellulose) (HPC) 97 % of control | dose: 150.0 mg/kg/injection, schedule: Q04DX003 (ip), vehicle: Klucel (hydroxypropylcellulose) (HPC) 114 % of control | dose: 200.0 mg/kg/injection, schedule: Q01DX001 (ip), vehicle: Klucel (hydroxypropylcellulose) (HPC) 103 % of control | [9] 104 % of control | dose: 400.0 mg/kg/injection, schedule: Q01DX001 (ip), vehicle: Klucel (hydroxypropylcellulose) (HPC) 92 % of control

Nc1ccc(Oc2ccc(Cl)cc2)c(Cl)c1
inactive: dose: 100.0 mg/kg/injection, schedule: Q01DX009 (ip), vehicle: saline with Tween-80 103 % of control | [6] 103 % of control | dose: 200.0 mg/kg/injection, schedule: Q01DX009 (ip), vehicle: saline with Tween-80 94 % of control | [7] 92 % of control | [8] 111 % of control

NC1=NC(=S)CS1
inactive: dose: 75.0 mg/kg/injection, schedule: Q04DX003 (ip), vehicle: saline 97 % of control | dose: 150.0 mg/kg/injection, schedule: Q04DX003 (ip), vehicle: saline 94 % of control | dose: 300.0 mg/kg/injection, schedule: Q04DX003 (ip), vehicle: saline 92 % of control

Nc1cc(C(=O)O)[nH]c(=O)n1
inactive: dose: 100.0 mg/kg/injection, schedule: Q01DX Z (ip), vehicle: methylcellulose (MC) 97 % of control

CCOC(=O)Nc1cc(NC(c2ccccc2)c2ccccc2)c([N+](=O)[O-])c(N)n1
inactive: [3] 91 % of control | dose: 200.0 mg/kg/injection, schedule: Q01DX001 (ip), vehicle: carboxymethylcellulose (CMC) 91 % of control | dose: 400.0 mg/kg/injection, schedule: Q01DX001 (ip), vehicle: carboxymethylcellulose (CMC) 89 % of control

Cc1c(C(=O)OCCCl)c(=O)n(-c2ccccc2)n1C
inactive: [10] 98 % of control | [11] 98 % of control

CCCC(=O)CCN(C)Cc1ccccc1
inactive: [10] 103 % of control

CN(C)c1ccc(C2OC3(CCCCC3)C[N+]23CCCC3)cc1 (stereo not given)
inactive: dose: 100.0 mg/kg/injection, schedule: Q04DX003 (ip), vehicle: acetone 102 % of control

COc1cc(C(Br)C(Br)C(=O)c2ccccc2[N+](=O)[O-])cc(OC)c1OC (stereo not given)
inactive: [12] 95 % of control | [13] 95 % of control | [14] 94 % of control

Cc1cc(CCl)c(C)cc1CCl
inactive: dose: 25.0 mg/kg/injection, schedule: Q04DX003 (ip), vehicle: saline with Tween-80 96 % of control | dose: 50.0 mg/kg/injection, schedule: Q04DX003 (ip), vehicle: saline with Tween-80 90 % of control

CNC(=S)N/N=C/c1ccc([N+](=O)[O-])s1
inactive: [4] 90 % of control | [5] 90 % of control | dose: 400.0 mg/kg/injection, schedule: Q04DX003 (ip), vehicle: saline with Tween-80 89 % of control

Nc1ncnc2c1ccn2C1CCCC1
inactive: dose: 25.0 mg/kg/injection, schedule: Q01DX001 (ip), vehicle: carboxymethylcellulose (CMC) 100 % of control | dose: 50.0 mg/kg/injection, schedule: Q01DX001 (ip), vehicle: carboxymethylcellulose (CMC) 111 % of control | [3] 105 % of control

O=P(Cc1ccccc1)(OCCCl)Oc1ccccc1 (stereo not given)
inactive: [12] 102 % of control | [6] 91 % of control | [13] 98 % of control | [7] 96 % of control | [14] 96 % of control | [8] 96 % of control

CC(C)(C)[Si](O)C(C)(C)C
inactive: [1] 91 % of control | [2] 98 % of control | dose: 300.0 mg/kg/injection, schedule: Q01DX001 (ip), vehicle: saline 96 % of control

CCCc1ccc(OCC(=O)O)c(OC)c1
inactive: dose: 75.0 mg/kg/injection, schedule: Q01DX001 (ip), vehicle: acetone 93 % of control | dose: 150.0 mg/kg/injection, schedule: Q01DX001 (ip), vehicle: acetone 92 % of control | dose: 300.0 mg/kg/injection, schedule: Q01DX001 (ip), vehicle: acetone 88 % of control

Cc1ccc(CNC(=O)Nc2c(C)cccc2C)cc1C
inactive: [15] 102 % of control | [16] 108 % of control | [17] 97 % of control

COC(=O)N/N=C/c1cc(OC)ccc1O
inactive: [15] 97 % of control | [16] 114 % of control | [17] 104 % of control

O=C1CCn2c1c(O)c1ccccc1c2=O
inactive: [10] 97 % of control | [11] 97 % of control

O=C(CC(CC(=O)c1ccccc1)c1ccccn1)c1ccccc1
inactive: dose: 50.0 mg/kg/injection, schedule: Q01DX001 (ip), vehicle: other 105 % of control | dose: 100.0 mg/kg/injection, schedule: Q01DX001 (ip), vehicle: other 100 % of control | dose: 200.0 mg/kg/injection, schedule: Q01DX001 (ip), vehicle: other 96 % of control | dose: 400.0 mg/kg/injection, schedule: Q01DX001 (ip), vehicle: other 102 % of control

CCCCCCCC(=O)N1C(C)CCCC1C (stereo not given)
inactive: dose: 100.0 mg/kg/injection, schedule: Q04DX002 (ip), vehicle: saline 114 % of control | dose: 200.0 mg/kg/injection, schedule: Q04DX002 (ip), vehicle: saline 111 % of control | dose: 400.0 mg/kg/injection, schedule: Q04DX002 (ip), vehicle: saline 104 % of control

c1ccc(CC2CCCC2)cc1
inactive: [6] 93 % of control | [7] 95 % of control | [9] 106 % of control
